Test results from ChEMBL document CHEMBL1157516, “Discovery of a novel, potent and orally active series of gamma-lactams as selective NK1 antagonists” (Bioorg Med Chem Lett, 2008).

Legend:
[1] = target: Substance-P receptor (Homo sapiens, UniProt P25103); experiment: Displacement of [3H]Sar-Met substance P from human recombinant NK1 receptor expressed in CHO cells; type: cell-based
[2] = system: Meriones unguiculatus; experiment: Inhibition of GR-73632-induced foot tapping in Mongolian gerbil assessed as decrease in duration of foot tapping at 1 mg/kg, po after 2 hrs; type: functional
[3] = system: Meriones unguiculatus; experiment: Inhibition of GR-73632-induced foot tapping in Mongolian gerbil assessed as decrease in duration of foot tapping at 1 mg/kg, po after 4 hrs; type: functional
[4] = system: Meriones unguiculatus; experiment: Inhibition of GR-73632-induced foot tapping in Mongolian gerbil assessed as decrease in duration of foot tapping at 1 mg/kg, po after 6 hrs; type: functional
[5] = target: T1, Substance-K receptor (Homo sapiens) (UniProt P21452); experiment: Displacement of [3H]Neurokinin A from human recombinant NK2 receptor expressed in CHO cells at 3 uM; type: cell-based
T1 sequence (whole entry): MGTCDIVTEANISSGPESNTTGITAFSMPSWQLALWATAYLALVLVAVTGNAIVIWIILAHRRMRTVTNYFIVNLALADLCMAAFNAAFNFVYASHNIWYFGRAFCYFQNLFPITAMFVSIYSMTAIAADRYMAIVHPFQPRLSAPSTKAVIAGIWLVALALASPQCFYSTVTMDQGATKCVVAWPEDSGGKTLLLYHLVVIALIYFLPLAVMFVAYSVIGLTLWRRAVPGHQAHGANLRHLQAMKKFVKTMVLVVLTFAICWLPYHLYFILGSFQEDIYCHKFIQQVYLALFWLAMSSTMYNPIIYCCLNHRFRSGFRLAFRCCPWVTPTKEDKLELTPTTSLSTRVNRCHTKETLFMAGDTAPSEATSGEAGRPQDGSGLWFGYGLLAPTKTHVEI

[6] = target: T2, Neuromedin-K receptor (Homo sapiens, UniProt P29371); experiment: Displacement of [125I]neurokinin B from human recombinant NK3 receptor expressed in CHO cells; type: cell-based
T2 sequence (P29371 whole entry): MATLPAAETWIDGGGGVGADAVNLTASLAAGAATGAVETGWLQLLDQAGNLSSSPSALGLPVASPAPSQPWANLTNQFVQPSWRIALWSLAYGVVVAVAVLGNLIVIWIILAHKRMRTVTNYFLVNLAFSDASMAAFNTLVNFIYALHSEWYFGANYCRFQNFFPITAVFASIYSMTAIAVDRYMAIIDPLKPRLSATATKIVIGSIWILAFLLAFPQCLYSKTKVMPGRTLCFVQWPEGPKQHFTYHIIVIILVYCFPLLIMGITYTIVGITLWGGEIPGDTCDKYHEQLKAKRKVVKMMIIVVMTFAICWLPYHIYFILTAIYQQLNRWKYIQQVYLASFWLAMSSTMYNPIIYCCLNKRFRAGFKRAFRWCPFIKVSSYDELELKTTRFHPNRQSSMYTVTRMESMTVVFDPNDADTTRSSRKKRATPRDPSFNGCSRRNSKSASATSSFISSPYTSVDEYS

[7] = target: T3, Neuromedin-K receptor (Homo sapiens) (UniProt P29371); experiment: Displacement of [125I]neurokinin B from human recombinant NK3 receptor expressed in CHO cells at 10 uM; type: cell-based
T3 sequence (whole entry): T2 sequence (P29371 whole entry)

Sequence of Substance-P receptor (P25103 whole entry): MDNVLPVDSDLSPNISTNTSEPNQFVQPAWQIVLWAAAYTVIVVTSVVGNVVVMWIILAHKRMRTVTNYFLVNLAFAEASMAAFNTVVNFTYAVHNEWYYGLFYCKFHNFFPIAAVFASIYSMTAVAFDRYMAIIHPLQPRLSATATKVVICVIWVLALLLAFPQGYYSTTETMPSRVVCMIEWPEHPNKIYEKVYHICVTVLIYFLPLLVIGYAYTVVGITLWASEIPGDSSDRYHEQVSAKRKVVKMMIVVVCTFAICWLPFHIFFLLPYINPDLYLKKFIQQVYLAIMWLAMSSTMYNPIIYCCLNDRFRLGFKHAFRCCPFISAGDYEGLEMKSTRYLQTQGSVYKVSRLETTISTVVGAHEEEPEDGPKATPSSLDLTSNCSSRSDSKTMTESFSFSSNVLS

Ki [1] | inhibition [5] | Ki [6] | inhibition [7] | SMILES | inhibition in vivo at 1 mg/kg [2] | inhibition in vivo at 1 mg/kg [3] | inhibition in vivo at 1 mg/kg [4]
0.7 nM |  |  |  | C[C@H]1C[C@@](CO[C@H](C)c2cc(C(F)(F)F)cc(C(F)(F)F)c2)(c2ccccc2)NC1=O | 77% | 85% | 44%
0.2 nM | 28% | 1250 nM |  | C[C@@H](OC[C@@]1(c2ccccc2)C[C@H](N2CCCC2=O)C(=O)N1)c1cc(C(F)(F)F)cc(C(F)(F)F)c1 | 100% | 100% | 98%
0.5 nM |  |  |  | C[C@@H](OC[C@@]1(c2ccccc2)CC(O)C(=O)N1)c1cc(C(F)(F)F)cc(C(F)(F)F)c1 (stereo partly drawn) | 27% | 35% | 1%
0.4 nM |  |  |  | C[C@@H](OC[C@@]1(c2ccccc2)C[C@H](N2CCCC2)C(=O)N1)c1cc(C(F)(F)F)cc(C(F)(F)F)c1 | 78% | 60% | 45%
0.4 nM |  |  |  | C[C@@H](OC[C@@]1(c2ccccc2)CC(N)C(=O)N1)c1cc(C(F)(F)F)cc(C(F)(F)F)c1 (stereo partly drawn) | 5% | 13% | 11%
0.3 nM |  |  |  | CCC(=O)N[C@@H]1C[C@@](CO[C@H](C)c2cc(C(F)(F)F)cc(C(F)(F)F)c2)(c2ccccc2)NC1=O | 83% | 16% | 19%
0.2 nM |  |  |  | C[C@@H](OC[C@@]1(c2ccccc2)C[C@H](N2CCCCC2=O)C(=O)N1)c1cc(C(F)(F)F)cc(C(F)(F)F)c1 | 74% | 37% | 63%
2.6 nM |  |  |  | C[C@@H](OC[C@@]1(c2ccccc2)C[C@@H](NS(C)(=O)=O)C(=O)N1)c1cc(C(F)(F)F)cc(C(F)(F)F)c1 | 0% | 15% | 0%
0.5 nM |  |  |  | C[C@@H](OC[C@@]1(c2ccccc2)C[C@@H](N2CCCC2=O)C(=O)N1)c1cc(C(F)(F)F)cc(C(F)(F)F)c1 | 49% | 46% | 39%
0.3 nM |  |  |  | CCC(=O)N[C@H]1C[C@@](CO[C@H](C)c2cc(C(F)(F)F)cc(C(F)(F)F)c2)(c2ccccc2)NC1=O | 84% | 97% | 90%
0.9 nM |  |  |  | CC(=O)N[C@@H]1C[C@@](CO[C@H](C)c2cc(C(F)(F)F)cc(C(F)(F)F)c2)(c2ccccc2)NC1=O | 80% | 97% | 71%
0.2 nM |  |  |  | C[C@@H](OC[C@@]1(c2ccccc2)C[C@@H](N2CCCCC2=O)C(=O)N1)c1cc(C(F)(F)F)cc(C(F)(F)F)c1 | 20% | 26% | 56%
0.6 nM | 0.1% | 3810 nM |  | C[C@@H](OC[C@@]1(c2ccccc2)CCC(=O)N1)c1cc(C(F)(F)F)cc(C(F)(F)F)c1 | 92% | 78% | 47%
0.6 nM |  |  |  | C[C@@H](OC[C@@]1(c2ccccc2)C[C@H](NS(C)(=O)=O)C(=O)N1)c1cc(C(F)(F)F)cc(C(F)(F)F)c1 | 10% | 58% | 43%
 |  |  |  | C[C@@H](OC[C@@]1(c2ccccc2)CNC(=O)N1)c1cc(C(F)(F)F)cc(C(F)(F)F)c1 | 35% | 57% | 48%
2 nM |  |  |  | C[C@@H]1C[C@@](CO[C@H](C)c2cc(C(F)(F)F)cc(C(F)(F)F)c2)(c2ccccc2)NC1=O | 11% | 2% | 36%
0.3 nM | 1.4% |  | 43% | CC(=O)N[C@H]1C[C@@](CO[C@H](C)c2cc(C(F)(F)F)cc(C(F)(F)F)c2)(c2ccccc2)NC1=O | 94% | 94% | 91%
